Data reported in US9296760B2, “Antibacterial compounds” (JANSSEN SCIENCES IRELAND UC, priority 2012, dated 2016).
Values after ≈ are worked out from the molar mass of the structure shown.

Experiments:
[1] = test system: Staphylococcus aureus ATCC 29213; test: Antibacterial susceptibility testing, IC90 determination (broth microdilution, resazurin); format: cell-based; settings: Staphylococcus aureus, ATCC29213, S. aureus ATCC 29213; 90% inhibitory concentration for bacterial growth; read-out: STA (361.159) IC90
Experimental: Y.2 In Vitro Method for Testing Compounds for Antibacterial Activity Against Various Bacterial Strains
Preparation of Bacterial Suspensions for Susceptibility Testing
The following bacteria were used: Staphylococcus aureus ATCC 29213, methicillin-resistant Staphylococcus aureus (MRSA) ATCC 700788 and Escherichia coli ATCC 35218. The bacteria used in this study were grown overnight in flasks containing 100 ml Mueller-Hinton broth (Difco cat. nr. 0757-17) in sterile de-ionized water, with shaking, at 37° C. Stocks were store at −70° C. until use.
Bacteria were incubated on a tryptic soy agar plate containing 5% sheep blood (Becton Dickinson cat. nr. 254053) for 18-24 hours at 35° C. in aerobic conditions (first passage). For the second passage, fresh Mueller-Hinton broth is inoculated with 5-10 colonies and grown overnight at 35° C. until turbidity (reaching log-phase) in aerobic conditions is reached. The bacterial suspension is then adjusted to 0.5 McFarland density and further diluted 1:100 in Mueller Hinton broth medium. This is used as inoculum.
The result(s) are depicted the table below (for STA ATCC 29213).
Antibacterial Susceptibility Testing: IC90 Determination
(§1) MIC assays were performed by the broth microdilution method in a 96-well format (flat-bottom microtitre plates) with a final volume of 0.1 ml Mueller Hinton broth containing two-fold serial dilutions of compounds and inoculated with 5×10^5 CFU/ml of bacteria (standard inoculum size according to CLSI guidelines). Inhibitors are typically varied over the range of 63 to 0.49 μM. The final DMSO concentration in the assay was 1.25% (maximum tolerable DMSO concentration=6%). In the assays where the effect of human serum on the activity of the compounds against S. aureus was tested, human serum was added at a final concentration of 10%. The plates were incubated at 35° C. for 16-20 hours. At the end of incubation the bacterial growth was quantified fluorometrically. For this, resazurin was added to all wells and the plates were re-incubated. The incubation time is dependent on the type of bacteria. A change in color from blue to pink indicated the growth of bacteria. The fluorescence was read in computer-controlled fluorometer (Fluoroskan Ascent FL, Labsystems) at an excitation wavelength 540 nm and an emission wavelength of 590 nm. The % growth inhibition achieved by the compounds was calculated according to standard methods. The IC90 (expressed in μg/ml) was defined as the 90% inhibitory concentration for bacterial growth. A panel of reference compounds were simultaneously tested for QC approval.

Cytotoxicity MTT assay = format: cell-based, Human; settings: human, HelaM cells, read-out: HELAM (222.125) CC50
Experimental: Cytotoxicity of the compounds was evaluated using the MTT assay. Human HelaM cells grown in 96-well plates were exposed to serial dilutions of the tested compounds (final volume of 0.2 ml) and incubated for 72 hours at 37° C. and 5% CO2 Inhibitors are typically varied over the range of 25 to 0.8 μM. The final DMSO concentration in the assay is 0.5%. MTT (3-(4,5-Dimethylthiazol-2-yl)-2,5-diphenyltetrazolium bromide, a tetrazole) was added and reduced to purple formazan only in living cells. Solubilization of the formazan crystals was achieved by adding 100 μl 2-propanol. Cell viability was determined by measuring the absorbance of the reduced formazan, giving a purple color, at 540 nm and 690 nm. The absorbance measured at 690 nm was automatically subtracted from the absorbance at 540 nm, to eliminate the effects of non-specific absorption. The percent cytotoxicity achieved by the compounds was calculated according to standard methods. Cytotoxicity is reported as CC50, the concentration that causes a 50% reduction in cell viability.
The results are depicted in the table(s) below (HELAM).

S. aureus = test: Antibacterial susceptibility testing, IC90 determination with 10% human serum; format: cell-based, Staphylococcus aureus; settings: Staphylococcus aureus, S. aureus with human serum at final concentration of 10%; read-out: STA + 10% HS (361.169) IC90
Experimental: as §1, with “Antibacterial Susceptibility Testing: IC90 Determination MIC” for “MIC”, “approval. The results are depicted in the table(s) below (STA+10% HS).” for “approval.”

[2] = target: T1, S. aureus ATCC 29213 FabI (Staphylococcus aureus, UniProt Q6GI75); test: Staphylococcus aureus FabI enzyme inhibition assay; format: biochemical; settings: NADH consumption, 30 minutes, read-out: FabI (300.235) IC50 (converted)
T1 sequence (Q6GI75 1-256): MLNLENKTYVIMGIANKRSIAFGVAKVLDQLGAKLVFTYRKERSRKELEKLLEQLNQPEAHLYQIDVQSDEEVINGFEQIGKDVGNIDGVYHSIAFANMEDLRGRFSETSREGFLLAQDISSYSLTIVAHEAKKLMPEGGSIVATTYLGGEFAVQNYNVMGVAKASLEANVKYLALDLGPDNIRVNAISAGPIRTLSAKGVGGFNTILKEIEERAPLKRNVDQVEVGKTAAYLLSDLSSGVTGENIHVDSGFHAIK
Experimental: Y.1 FabI Enzyme Inhibition: Staphylococcus aureus FabI Enzyme Inhibition Assay
FabI enzyme inhibition assays were carried out in half-area, 384-well microtitre plates. […] The reaction mixtures were incubated for 30 minutes at room temperature and the reaction was stopped by adding 200 mM Tris buffer (pH 9.0) to create a pH-shift. The consumption of NADH was monitored by measuring the change in absorbance at […]. By comparing sample readings to those of negative (absence of compound) and positive (absence of enzyme) controls, the percent inhibition of enzymatic activity of the compounds was determined A best-fit curve is fitted by a minimum of squares method. From this an IC50-value (expressed in μg/ml), resulting in 50% inhibition of enzymatic activity, was obtained.

Row | SMILES | melting point | IC90 [1] | CC50 at 72 h (Cytotoxicity MTT assay) | IC90 (S. aureus) | IC50 [2]
1 | O=C1Nc2ncc(/C=C/C(=O)N3CCC=C(c4ccccc4)CC3)cc2CN2CCSCC12 (centres unmarked) [Compound K1] | 224 °C |  |  |  | 
2 | O=C(Nc1ccc(/C=C/C(=O)N2CCC=C(c3ccccc3)CC2)cn1)c1ccccc1 [compound 9] | 158.31 °C | 0.85 µg/mL (≈ 2.01 µM) | 4.24 µg/mL (≈ 10 µM) | 6.26 µg/mL | 1.82 µM
3 | Cn1cc(C(=O)Nc2ccc(/C=C/C(=O)N3CCC=C(c4ccccc4)CC3)cn2)cn1 [compound 4] |  | 0.63 µg/mL (≈ 1.47 µM) | 3.94 µg/mL (≈ 9.22 µM) | 1.66 µg/mL | 1.4 µM
4 | Cn1nccc1C(=O)Nc1ccc(/C=C/C(=O)N2CCC=C(c3ccccc3)CC2)cn1 [compound 10] | 138 °C | 0.92 µg/mL (≈ 2.15 µM) | 5.44 µg/mL (≈ 12.7 µM) | 2.07 µg/mL | 1.92 µM
5 | COc1ccc(F)cc1C1=CCCN(C(=O)/C=C/c2ccc(NC(=O)c3cccnc3)nc2)CC1 [compound 3] | 122 °C | 0.45 µg/mL (≈ 0.952 µM) | 1.13 µg/mL (≈ 2.39 µM) | 1.68 µg/mL | 1.63 µM
6 | Cn1cnc(C(=O)Nc2ccc(/C=C/C(=O)N3CCC=C(c4ccccc4)CC3)cn2)c1 [compound 17] | 134 °C | 4.29 µg/mL (≈ 10 µM) | 13.9 µg/mL (≈ 32.5 µM) | 8.56 µg/mL | 2.41 µM
7 | O=C(/C=C/c1ccc(Nc2ccccc2)nc1)N1CCC=C(c2ccccc2)CC1 [compound 14] | 150 °C | 1.45 µg/mL (≈ 3.67 µM) | 6.27 µg/mL (≈ 15.9 µM) | 24.1 µg/mL | 2.25 µM
8 | CC(C)(C)C(=O)Nc1ccc(/C=C/C(=O)N2CCC=C(c3ccccc3)CC2)cn1 [compound 25] |  | > 25.5 µg/mL | 6.32 µg/mL (≈ 15.7 µM) | > 25.5 µg/mL | 2.03 µM
9 | Nc1ccc(/C=C/C(=O)N2CCC=C(c3ccccc3)CC2)cn1 [compound 23] |  | 13.3 µg/mL (≈ 41.7 µM) | 5.3 µg/mL (≈ 16.6 µM) | > 20.1 µg/mL | 3.01 µM
10 | CC(=O)N1CC(=O)Nc2ncc(/C=C/C(=O)N3CCC=C(c4ccccc4)CC3)cc2C1 [compound 39] |  | 0.51 µg/mL (≈ 1.18 µM) | > 10.8 µg/mL | 0.75 µg/mL | 0.743 µM
11 | O=C(Nc1ccc(/C=C/C(=O)N2CCC=C(c3ccccc3)CC2)cn1)C1CCCO1 (centres unmarked) [compound 30] |  | 27.7 µg/mL (≈ 66.3 µM) | 11 µg/mL (≈ 26.4 µM) | 33.3 µg/mL | ~1.76 µM
12 | COc1ccc(F)cc1C1=CCCN(C(=O)/C=C/c2cnc3c(c2)CN2CCN(C(C)=O)CC2C(=O)N3)CC1 (centres unmarked) [compound 48] |  | < 0.26 µg/mL | > 13.4 µg/mL | 0.46 µg/mL | 1.11 µM
13 | CS(=O)(=O)N1CC(=O)Nc2ncc(/C=C/C(=O)N3CCC=C(c4ccccc4)CC3)cc2C1 [compound 37] |  | 0.48 µg/mL (≈ 1.03 µM) | 2.04 µg/mL (≈ 4.37 µM) | 0.66 µg/mL | 0.686 µM
14 | O=C(Nc1ccc(/C=C/C(=O)N2CCC=C(c3ccccc3)CC2)cn1)C1CCCCC1 [compound 29] |  | > 27.1 µg/mL | 3.15 µg/mL (≈ 7.33 µM) | > 27.1 µg/mL | 3.1 µM
15 | CC(C)CC(=O)Nc1ccc(/C=C/C(=O)N2CCC=C(c3ccccc3)CC2)cn1 [compound 26] |  | > 25.5 µg/mL | 3.77 µg/mL (≈ 9.34 µM) | > 25.5 µg/mL | 1.39 µM
16 | O=CNc1ccc(/C=C/C(=O)N2CCC=C(c3ccccc3)CC2)cn1 [compound 7] |  | 0.78 µg/mL (≈ 2.25 µM) | 7.18 µg/mL (≈ 20.7 µM) | 1.25 µg/mL | 0.662 µM
17 | O=C1CN(c2ccccc2)Cc2cc(/C=C/C(=O)N3CCC=C(c4ccccc4)CC3)cnc2N1 [compound 42] |  | 0.77 µg/mL (≈ 1.66 µM) | 11.7 µg/mL (≈ 25.1 µM) | 3.33 µg/mL | ~1.51 µM
18 | CC1(C(=O)Nc2ccc(/C=C/C(=O)N3CCC=C(c4ccccc4)CC3)cn2)CC1 [compound 15] |  | 2.84 µg/mL (≈ 7.07 µM) | 6.59 µg/mL (≈ 16.4 µM) | 11.8 µg/mL | ~1.07 µM
19 | CC(C)Nc1ccc(/C=C/C(=O)N2CCC=C(c3ccccc3)CC2)cn1 [compound 24] |  | 21 µg/mL (≈ 58.2 µM) | > 9.08 µg/mL | > 22.8 µg/mL | 5.26 µM
20 | O=C(Nc1ccc(/C=C/C(=O)N2CCC=C(c3ccccc3)CC2)cn1)c1cnccn1 [compound 28] |  | > 26.8 µg/mL | > 10.7 µg/mL | 26.2 µg/mL | 1.2 µM
21 | O=C(Nc1ccc(/C=C/C(=O)N2CCC=C(c3ccccc3)CC2)cn1)c1ccccn1 [compound 27] |  | > 26.8 µg/mL | 3.83 µg/mL (≈ 9.02 µM) | > 26.8 µg/mL | 2.1 µM
